Patent publication US20110282056A1, “PROTEIN KINASE INHIBITORS AND USE THEREOF” (priority 2008, published 2011)

Tests used:
Type in all cases: biochemical
VEGFR3 = molecular target: T1, VEGFR3 (Homo sapiens, UniProt P35916); assay: VEGFR3 enzyme activity assay (Caliper LC3000 mobility shift); conditions: 400 uM ATP (Km), 0.4 nM VEGFR3, 90 minutes at RT
T1 construct: purchased Millpore Corp. (Millipore) 14-681
Method: (§1) Enzyme activity for VEGFR3, VEGFR2 and Flt3 were measured on the Caliper Life Sciences LC3000 (Hopkinton, Mass.). The system utilizes the principle of electroosmotic flow to separate and quantify the amount of phosphorylated-Fluorescein-labelled-peptide (product) from unphosphorylated-Fluorescein-labelled peptide (substrate). The amount of product and substrate are determined by measuring the peak heights from the electropherogram. The enzyme activity is then quantified by dividing the amount of product by the sum of the product and substrate. The inhibitory activity of a sample is measured by comparing the enzyme activity in the presence of sample versus the enzyme activity in the presence of dimethylsufoxide (DMSO). Specific assay conditions for each enzyme are listed below:
(§2) VEGFR3 assay: The peptide substrate at 1 uM (FITC-KKKKEEIYFFF-CONH2; synthesized at Tufts University, Boston, Mass.) was incubated with 400 uM of ATP, corresponding to the Michaelis-Menten (Km) constant of the enzyme/substrate reaction, and 0.4 nM of VEGFR3 (Millpore Corp., Cat. No. 14-681) for 90 minutes at RT. After 90 minutes, the reaction was stopped by the addition of 10 mM EDTA. The substrate and product were then separated on the LC3000.

VEGFR2 = molecular target: T2, VEGFR2 (Homo sapiens, UniProt P35968); assay: VEGFR2 enzyme activity assay (Caliper LC3000 mobility shift); conditions: 160 uM ATP (Km), 1 nM VEGFR2, 90 minutes at RT
T2 construct: purchased BPS Bioscience; San Diego, Calif; 40301
Method: as §1
as §2, with “VEGFR2” for “VEGFR3”, “(5-FL-EEPLYWSFPAKKK-CONH2;” for “(FITC-KKKKEEIYFFF-CONH2;”, “160” for “400”, “1” for “0.4”, “VEGFR2 (BPS Bioscience; San Diego, Calif.;” for “VEGFR3 (Millpore Corp.,”, “40301)” for “14-681)”

Flt3 = molecular target: T3, Flt3 (Homo sapiens, UniProt P36888); assay: Flt3 enzyme activity assay (Caliper LC3000 mobility shift); conditions: 350 uM ATP (Km), 3 nM Flt3, 90 minutes at RT
T3 construct: purchased BPS Bioscience; San Diego, Calif; 40225
T3 sequence (P36888 27-993): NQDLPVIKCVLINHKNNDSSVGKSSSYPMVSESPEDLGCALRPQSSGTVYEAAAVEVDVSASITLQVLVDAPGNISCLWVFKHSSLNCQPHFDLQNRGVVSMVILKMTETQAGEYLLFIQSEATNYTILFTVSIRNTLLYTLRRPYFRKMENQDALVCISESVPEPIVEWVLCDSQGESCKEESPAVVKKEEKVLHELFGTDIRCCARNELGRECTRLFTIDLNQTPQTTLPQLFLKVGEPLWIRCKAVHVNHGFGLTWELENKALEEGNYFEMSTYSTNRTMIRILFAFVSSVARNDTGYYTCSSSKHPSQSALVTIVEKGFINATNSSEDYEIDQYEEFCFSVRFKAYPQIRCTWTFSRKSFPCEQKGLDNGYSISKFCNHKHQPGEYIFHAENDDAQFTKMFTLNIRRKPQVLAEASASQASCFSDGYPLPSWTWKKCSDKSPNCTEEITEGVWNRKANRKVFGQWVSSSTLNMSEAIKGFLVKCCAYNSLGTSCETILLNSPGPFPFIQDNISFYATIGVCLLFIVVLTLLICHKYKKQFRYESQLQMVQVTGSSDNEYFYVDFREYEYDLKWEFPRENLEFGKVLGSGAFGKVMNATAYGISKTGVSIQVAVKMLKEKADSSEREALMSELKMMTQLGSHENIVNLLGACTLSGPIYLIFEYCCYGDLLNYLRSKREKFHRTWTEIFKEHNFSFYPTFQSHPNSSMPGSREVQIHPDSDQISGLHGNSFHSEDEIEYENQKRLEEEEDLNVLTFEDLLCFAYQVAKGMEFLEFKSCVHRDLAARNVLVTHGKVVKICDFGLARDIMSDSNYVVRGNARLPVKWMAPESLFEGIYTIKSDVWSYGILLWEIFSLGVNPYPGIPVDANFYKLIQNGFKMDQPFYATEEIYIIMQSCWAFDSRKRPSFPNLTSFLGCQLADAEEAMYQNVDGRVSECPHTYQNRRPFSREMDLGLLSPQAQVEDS
Method: as §1
as §2, with “Flt3” for “VEGFR3”, “(FITC-AHA-UEAIYAAPFAKKK-CONH2;” for “(FITC-KKKKEEIYFFF-CONH2;”, “350” for “400”, “3” for “0.4”, “Flt3 (BPS Bioscience; San Diego, Calif.;” for “VEGFR3 (Millpore Corp.,”, “40225)” for “14-681)”

Measured: IC50

T1 sequence (P35916 25-1363): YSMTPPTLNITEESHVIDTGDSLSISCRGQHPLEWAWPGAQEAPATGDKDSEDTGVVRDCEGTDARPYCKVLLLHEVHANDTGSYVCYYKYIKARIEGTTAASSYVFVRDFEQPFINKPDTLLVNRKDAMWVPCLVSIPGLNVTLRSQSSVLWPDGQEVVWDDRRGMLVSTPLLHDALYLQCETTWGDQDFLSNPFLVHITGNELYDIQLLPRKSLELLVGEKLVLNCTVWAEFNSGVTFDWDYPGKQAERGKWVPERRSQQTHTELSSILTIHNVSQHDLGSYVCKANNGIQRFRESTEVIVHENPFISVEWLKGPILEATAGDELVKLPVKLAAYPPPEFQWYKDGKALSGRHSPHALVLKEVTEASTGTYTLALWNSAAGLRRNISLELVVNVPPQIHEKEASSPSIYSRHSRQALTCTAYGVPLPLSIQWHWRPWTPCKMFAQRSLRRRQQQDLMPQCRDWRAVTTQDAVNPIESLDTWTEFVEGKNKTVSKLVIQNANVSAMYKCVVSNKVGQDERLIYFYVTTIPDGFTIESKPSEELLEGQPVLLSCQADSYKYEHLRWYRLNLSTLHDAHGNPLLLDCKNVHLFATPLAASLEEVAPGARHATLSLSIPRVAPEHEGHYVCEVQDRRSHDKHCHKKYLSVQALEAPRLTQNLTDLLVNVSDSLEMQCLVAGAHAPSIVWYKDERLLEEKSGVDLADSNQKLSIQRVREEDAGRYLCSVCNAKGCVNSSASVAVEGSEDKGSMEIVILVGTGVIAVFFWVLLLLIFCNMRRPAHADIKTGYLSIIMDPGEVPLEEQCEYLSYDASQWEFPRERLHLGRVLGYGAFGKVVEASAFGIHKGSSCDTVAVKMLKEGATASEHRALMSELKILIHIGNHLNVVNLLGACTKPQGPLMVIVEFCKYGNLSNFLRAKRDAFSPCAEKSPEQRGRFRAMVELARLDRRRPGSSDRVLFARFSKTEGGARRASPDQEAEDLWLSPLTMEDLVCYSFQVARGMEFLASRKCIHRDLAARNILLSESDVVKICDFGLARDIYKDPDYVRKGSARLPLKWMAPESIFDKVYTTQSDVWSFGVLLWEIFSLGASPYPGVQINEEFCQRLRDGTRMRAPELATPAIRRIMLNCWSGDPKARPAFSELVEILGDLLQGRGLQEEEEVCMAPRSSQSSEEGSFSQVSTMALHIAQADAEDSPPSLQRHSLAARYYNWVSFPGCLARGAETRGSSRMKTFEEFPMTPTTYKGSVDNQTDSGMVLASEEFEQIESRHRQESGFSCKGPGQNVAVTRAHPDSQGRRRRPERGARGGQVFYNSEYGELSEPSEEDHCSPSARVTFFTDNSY
T2 sequence (P35968 20-1356): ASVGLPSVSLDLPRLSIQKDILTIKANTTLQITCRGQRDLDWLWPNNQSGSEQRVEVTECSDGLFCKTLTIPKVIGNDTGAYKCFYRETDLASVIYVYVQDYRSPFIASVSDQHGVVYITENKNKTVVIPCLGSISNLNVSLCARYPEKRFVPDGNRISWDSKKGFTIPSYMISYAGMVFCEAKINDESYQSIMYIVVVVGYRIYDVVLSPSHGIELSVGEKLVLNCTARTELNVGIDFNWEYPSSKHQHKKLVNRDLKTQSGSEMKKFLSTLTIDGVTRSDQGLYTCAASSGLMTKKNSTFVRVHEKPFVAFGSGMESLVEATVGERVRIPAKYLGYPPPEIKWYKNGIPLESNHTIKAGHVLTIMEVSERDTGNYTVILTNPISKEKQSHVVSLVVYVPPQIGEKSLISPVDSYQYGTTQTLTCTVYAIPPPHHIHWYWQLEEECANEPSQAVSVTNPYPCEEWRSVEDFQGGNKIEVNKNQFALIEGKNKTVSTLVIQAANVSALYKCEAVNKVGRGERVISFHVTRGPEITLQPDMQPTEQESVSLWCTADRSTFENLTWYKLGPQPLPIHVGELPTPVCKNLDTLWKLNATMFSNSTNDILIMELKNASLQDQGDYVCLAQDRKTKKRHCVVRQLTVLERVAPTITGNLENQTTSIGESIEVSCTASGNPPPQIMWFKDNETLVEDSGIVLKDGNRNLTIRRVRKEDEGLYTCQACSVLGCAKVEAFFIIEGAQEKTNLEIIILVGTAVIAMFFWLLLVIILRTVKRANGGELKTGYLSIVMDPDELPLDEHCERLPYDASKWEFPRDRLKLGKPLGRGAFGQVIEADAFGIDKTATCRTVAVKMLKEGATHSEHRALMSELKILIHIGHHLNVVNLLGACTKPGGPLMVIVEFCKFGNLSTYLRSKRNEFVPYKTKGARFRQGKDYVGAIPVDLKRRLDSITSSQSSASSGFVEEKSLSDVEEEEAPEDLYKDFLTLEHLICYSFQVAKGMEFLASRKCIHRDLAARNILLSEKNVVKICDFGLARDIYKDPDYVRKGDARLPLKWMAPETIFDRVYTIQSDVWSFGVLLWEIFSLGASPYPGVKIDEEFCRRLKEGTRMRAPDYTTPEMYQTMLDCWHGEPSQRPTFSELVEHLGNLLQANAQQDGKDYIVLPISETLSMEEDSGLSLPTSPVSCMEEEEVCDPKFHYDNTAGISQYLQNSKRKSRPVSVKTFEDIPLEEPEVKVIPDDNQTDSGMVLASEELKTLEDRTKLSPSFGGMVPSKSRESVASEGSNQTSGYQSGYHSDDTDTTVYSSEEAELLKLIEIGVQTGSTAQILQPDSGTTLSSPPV

C(#Cc1ccnc2[nH]ccc12)c1ccc(-c2cnco2)cc1 [compound 119]
> 1000 nM: VEGFR3 | VEGFR2 | Flt3

FC(F)(F)Oc1ccc(C#Cc2ccnc3[nH]ccc23)cc1 [compound 120]
> 1000 nM: VEGFR3 | VEGFR2 | Flt3

O=C(Cc1ccccc1C#Cc1ccnc2[nH]ccc12)N1CCC(F)(F)CC1 [compound 121]
> 1000 nM: VEGFR3 | VEGFR2 | Flt3

COC(=O)c1ccc(C#Cc2ccnc3[nH]ccc23)cc1OC [compound 122]
> 1000 nM: VEGFR3 | VEGFR2 | Flt3

FC(F)(F)Oc1cccc(C#Cc2ccnc3[nH]ccc23)c1 [compound 123]
> 1000 nM: VEGFR3 | VEGFR2 | Flt3

CN(C)c1ccc(C#Cc2ccnc3[nH]ccc23)cc1 [compound 124]
> 1000 nM: VEGFR3 | VEGFR2 | Flt3

CN(C)c1ccc(C#Cc2ncnc3sc4c(c23)CCCC4)cc1 [compound 125]
> 1000 nM: VEGFR3 | VEGFR2 | Flt3

C(#Cc1ccnc2[nH]ccc12)c1ccc(-c2cccs2)cc1 [compound 126]
> 1000 nM: VEGFR3 | VEGFR2 | Flt3

C(#Cc1ccnc2[nH]ccc12)c1ccccc1-c1ccccc1 [compound 127]
> 1000 nM: VEGFR3 | VEGFR2 | Flt3

C(#Cc1ccnc2[nH]ccc12)c1ccc(N2CCOCC2)cc1 [compound 128]
> 1000 nM: VEGFR3 | VEGFR2 | Flt3

Nc1cc(C#Cc2ccccc2CNC(=O)C(F)(F)F)ccn1 [compound 129]
> 1000 nM: VEGFR3 | VEGFR2 | Flt3

COC(=O)c1ccc(C#Cc2ccnc3[nH]ccc23)cc1 [compound 130]
> 1000 nM: VEGFR3 | VEGFR2 | Flt3

C(#Cc1ccnc2[nH]ccc12)c1ccc(-c2nnc(-c3ccccc3)o2)cc1 [compound 131]
> 1000 nM: VEGFR3 | VEGFR2 | Flt3

COc1ccc(C#Cc2ccnc(NC(=O)OC(C)(C)C)c2)cc1 [compound 132]
> 1000 nM: VEGFR3 | VEGFR2 | Flt3

C(#Cc1ccnc2[nH]ccc12)c1ccc(-c2ccccc2)cc1 [compound 133]
> 1000 nM: VEGFR3 | VEGFR2 | Flt3

O=C(c1ccc(C#Cc2ccnc3[nH]ccc23)cc1)C1CC1 [compound 134]
> 1000 nM: VEGFR3 | VEGFR2 | Flt3

FC(F)(F)c1ccc(C#Cc2ccnc3[nH]ccc23)cc1 [compound 135]
> 1000 nM: VEGFR3 | VEGFR2 | Flt3

C(#Cc1ccnc2[nH]ccc12)c1ccc(-c2csnn2)cc1 [compound 136]
> 1000 nM: VEGFR3 | VEGFR2 | Flt3

Nc1ccccc1C#Cc1cnc2[nH]ccc2c1 [compound 137]
> 1000 nM: VEGFR3 | VEGFR2 | Flt3

COc1ccc(C#Cc2cnc3[nH]ccc3c2)cc1 [compound 138]
> 1000 nM: VEGFR3 | VEGFR2 | Flt3

COc1ccc(NC(=O)Cc2ccccc2C#Cc2ccnc3[nH]ccc23)cc1 [compound 139]
> 1000 nM: VEGFR3 | VEGFR2 | Flt3
